# Laboratory results taken from patent publication US20140093884A1, “Process for Identifying Novel Anti-Inflammatory Molecules with Reduced Direct Transrepression of Genes Induced by Glucocorticoids” (UNIVERSITE DE STRASBOURG, priority 2011, published 2014).
# Target: T1, GR binding to IR nGREs (Homo sapiens, UniProt P04150)
# T1 construct: GR-expressing cells are in vitro cultured cells, preferably human lung epithelial carcinoma cells A549; endogenous in cells; host or cells: A549 (CCL-185, ATCC)
# T1 sequence (P04150 1-777): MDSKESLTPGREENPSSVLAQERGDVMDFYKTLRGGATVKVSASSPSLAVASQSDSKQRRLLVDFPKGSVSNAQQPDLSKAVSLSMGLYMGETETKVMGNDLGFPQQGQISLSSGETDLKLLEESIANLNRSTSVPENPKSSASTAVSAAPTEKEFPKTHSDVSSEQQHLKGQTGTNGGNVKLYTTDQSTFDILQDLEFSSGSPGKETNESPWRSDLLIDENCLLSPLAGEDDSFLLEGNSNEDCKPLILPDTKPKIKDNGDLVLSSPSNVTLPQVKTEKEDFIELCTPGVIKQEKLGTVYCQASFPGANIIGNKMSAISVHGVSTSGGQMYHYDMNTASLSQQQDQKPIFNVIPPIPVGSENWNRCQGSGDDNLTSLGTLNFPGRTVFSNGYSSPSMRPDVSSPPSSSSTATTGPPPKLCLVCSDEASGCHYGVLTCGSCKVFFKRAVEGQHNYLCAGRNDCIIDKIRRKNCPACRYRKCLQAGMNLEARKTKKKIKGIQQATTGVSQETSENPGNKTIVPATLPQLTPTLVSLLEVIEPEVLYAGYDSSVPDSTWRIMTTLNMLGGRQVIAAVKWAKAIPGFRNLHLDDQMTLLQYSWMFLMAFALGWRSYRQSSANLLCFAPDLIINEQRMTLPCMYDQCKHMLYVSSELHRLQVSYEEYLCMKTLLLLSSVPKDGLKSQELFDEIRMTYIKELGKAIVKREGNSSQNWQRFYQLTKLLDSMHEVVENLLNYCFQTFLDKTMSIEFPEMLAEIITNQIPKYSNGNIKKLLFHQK
# Experiment: ChIP assay of GR binding to IR0 to IR5 nGRE reporter plasmids in A549 cells
# Type: cell-based
# Conditions: upon FA addition
# Method: For ChIP assays to test GR and cofactor binding to the nGRE, +GRE or NFκB region of various luciferase reporter plasmids, ˜60% confluent A549 cells in 100 mm TC dish were transfected with 2 μg of respective plasmids using fugene 6 reagent (Roche) and maintained in charcoal treated FCS containing medium. 44 hours post-transfection, 500 nM FA or Dex or RU24858 and/or 5 μM RU486, 5 ng/ml IL-1β (final conc.) was added to the medium for 2 hours, followed by formaldehyde treatment and processing as described above.
# To investigate whether the 1 bp spacer between the inverted repeated motifs of TSLP IR1 nGRE was critical for its repressing function, pGL3-based luciferase plasmids containing the VDRE and TSLP nGRE motifs spaced by 0 to 5 bases (IR0 to IR5 nGREs) were transfected into A549 cells.
structure (smiles),measurement,value
"CC1(C)O[C@@H]2C[C@H]3[C@@H]4C[C@H](F)C5=CC(=O)C=C[C@]5(C)[C@@]4(F)[C@@H](O)C[C@]3(C)[C@]2(C(=O)CO)O1 [FA, fluocinolone acetonide]",GR binding to IR0 nGRE (ChIP),less efficient
same,GR binding to IR1 and IR2 nGREs (ChIP),similarly bound
same,"GR binding to IR3, IR4 and IR5 nGREs (ChIP)",not detectable
